# Source: US20240018133A1, “MODULATORS OF THE INTEGRATED STRESS PATHWAY” (Calico Life Sciences LLC, priority 2019, published 2024)
# System: ATF4 luciferase reporter (human full-length ATF4 5'-UTR fused to firefly luciferase) in HEK293T cells
# Experiment: ATF4-Luc assay (in vitro model of VWMD): HEK293T cells carrying ATF4 luciferase reporter, tunicamycin-treated
# Format: cell-based
# Conditions: Homo sapiens, HEK-293T, 1 μg/mL tunicamycin, 7 hours, One Glo luminescence
# Summary of the method: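 Compound at 200 nM and tunicamycin at 1 μg/mL were given together for 7 h to HEK293T cells stably transduced with an ATF4 5′-UTR-driven firefly luciferase reporter. Read-out by luminescence, reported as EC50.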
row,Compound,EC50
1,"O=C(COc1ccc(Cl)c(F)c1)N[C@@H]1C[C@@H]2O[C@H]1C[C@H]2NC(=O)[C@H]1C[C@@H](O)c2cc(Cl)ccc2O1 [Compound 375, (2R,4R)-6-chloro-N-{(1S,2R,4S,5R)-5-[2-(4-chloro-3-fluorophenoxy)acetamido]-7-oxabicyclo[2.2.1]heptan-2-yl}-4-hydroxy-3,4-dihydro-2H-1-benzopyran-2-carboxamide]",< 10 nM
2,"CN1CC(C(=O)NC23CC(NC(=O)COc4ccc(Cl)c(F)c4)(C2)C3)Oc2ccc(Cl)cc21 (stereo not drawn) [Compound 112, 6-chloro-N-{3-[2-(4-chloro-3-fluorophenoxy)acetamido]bicyclo[1.1.1]pentan-1-yl}-4-methyl-3,4-dihydro-2H-1,4-benzoxazine-2-carboxamide]",< 10 nM
3,"O=C(COc1ccc(Cl)c(F)c1)NC12CC(NC(=O)[C@@H]3C[C@@H](O)c4cc(Cl)ccc4O3)(C1)C2 [Compound 198, (2S,4R)-6-chloro-N-{3-[2-(4-chloro-3-fluorophenoxy)acetamido]bicyclo[1.1.1]pentan-1-yl}-4-hydroxy-3,4-dihydro-2H-1-benzopyran-2-carboxamide]",< 10 nM
4,"O=C(NC12CC(NC(=O)[C@H]3C[C@@H](O)c4cc(Cl)ccc4O3)(C1)C2)c1cnn(-c2ccccc2)c1 [Compound 390, N-(3-{[(2R,4R)-6-chloro-4-hydroxy-3,4-dihydro-2H-1-benzopyran-2-carbonyl]amino}bicyclo[1.1.1]pentan-1-yl)-1-phenyl-1H-pyrazole-4-carboxamide]",10 to 50 nM
5,"O=C(COc1ccc(Cl)c(F)c1)NC12CC(NC(=O)C3CC(NC4COC4)c4cc(Cl)ccc4O3)(C1)C2 (stereo not drawn) [Compound 349, 6-chloro-N-{3-[2-(4-chloro-3-fluorophenoxy)acetamido]bicyclo[1.1.1]pentan-1-yl}-4-[(oxetan-3-yl)amino]-3,4-dihydro-2H-1-benzopyran-2-carboxamide]",10 to 50 nM
6,"C[C@]1(C(=O)NC23CC(NC(=O)COc4ccc(Cl)c(F)c4)(C2)C3)C[C@H](O)c2cc(Cl)ccc2O1 (racemic) [Compound 250, rac-(2R,4S)-6-chloro-N-{3-[2-(4-chloro-3-fluorophenoxy)acetamido]bicyclo[1.1.1]pentan-1-yl}-4-hydroxy-2-methyl-3,4-dihydro-2H-1-benzopyran-2-carboxamide]",50 to 250 nM
7,"O=C(NC12CC(NC(=O)C3CC(O)c4cc(Cl)ccc4O3)(C1)C2)c1cnc(C(F)F)cn1 (stereo not drawn) [Compound 213, N-{3-[(6-chloro-4-hydroxy-3,4-dihydro-2H-1-benzopyran-2-carbonyl)amino]bicyclo[1.1.1]pentan-1-yl}-5-(difluoromethyl)pyrazine-2-carboxamide]",10 to 50 nM
8,"O=C(COc1ccc(Cl)c(F)c1)NC12CCC(NC(=O)[C@@H]3C[C@H](O)c4cc(Cl)ccc4O3)(CC1)CC2 [Compound 306, (2S,4S)-6-chloro-N-{4-[2-(4-chloro-3-fluorophenoxy)acetamido]bicyclo[2.2.2]octan-1-yl}-4-hydroxy-3,4-dihydro-2H-1-benzopyran-2-carboxamide]",10 to 50 nM
9,"O=C(COc1ccc(Cl)c(F)c1)NC12CC(NC(=O)C3CC(NCC(F)(F)F)c4cc(Cl)ccc4O3)(C1)C2 (stereo not drawn) [Compound 336, 6-chloro-N-{3-[2-(4-chloro-3-fluorophenoxy)acetamido]bicyclo[1.1.1]pentan-1-yl}-4-[(2,2,2-trifluoroethyl)amino]-3,4-dihydro-2H-1-benzopyran-2-carboxamide]",250 to 500 nM
10,"C[C@]1(C(=O)NC23CC(NC(=O)COc4ccc(Cl)c(F)c4)(C2)C3)C[C@@H](O)c2cc(Cl)ccc2O1 (racemic) [Compound 251, rac-(2R,4R)-6-chloro-N-{3-[2-(4-chloro-3-fluorophenoxy)acetamido]bicyclo[1.1.1]pentan-1-yl}-4-hydroxy-2-methyl-3,4-dihydro-2H-1-benzopyran-2-carboxamide]",10 to 50 nM
11,"O=C(COc1ccc(Cl)c(F)c1)NC12CC(NC(=O)C3CC(=O)c4cc(F)c(F)cc4O3)(C1)C2 (stereo not drawn) [Compound 248, N-{3-[2-(4-chloro-3-fluorophenoxy)acetamido]bicyclo[1.1.1]pentan-1-yl}-6,7-difluoro-4-oxo-3,4-dihydro-2H-1-benzopyran-2-carboxamide]",< 10 nM
12,"O=C(NC12CC(NC(=O)[C@H]3C[C@@H](O)c4cc(Cl)ccc4O3)(C1)C2)c1ccc(OC(F)(F)F)cn1 [Compound 376, N-(3-{[(2R,4R)-6-chloro-4-hydroxy-3,4-dihydro-2H-1-benzopyran-2-carbonyl]amino}bicyclo[1.1.1]pentan-1-yl)-5-(trifluoromethoxy)pyridine-2-carboxamide]",10 to 50 nM
13,"C[C@@]1(O)C[C@H](C(=O)NC23CC(NC(=O)COc4ccc(Cl)c(F)c4)(C2)C3)Oc2ccc(Cl)cc21 (single isomer, unassigned) [Compound 280]",10 to 50 nM
14,"O=C(COc1ccc(Cl)c(F)c1)NC12CC(NC(=O)c3cc(=O)c4ccc(Cl)cc4o3)(C1)C2 [Compound 235, 7-chloro-N-{3-[2-(4-chloro-3-fluorophenoxy)acetamido]bicyclo[1.1.1]pentan-1-yl}-4-oxo-4H-1-benzopyran-2-carboxamide]",10 to 50 nM
15,"O=C(NC12CCC(NC(=O)[C@@H]3C[C@H](O)c4cc(Cl)ccc4O3)(CC1)[C@@H](O)C2)c1cc(C(F)F)no1 (single isomer, unassigned) [Compound 216]",250 to 500 nM
16,"O=C(NC12CCC(NC(=O)[C@H]3CC(=O)c4cc(Cl)ccc4O3)(CC1)CC2)c1ccc(OC(F)(F)F)cn1 [Compound 357, N-(4-{[(2R)-6-chloro-4-oxo-3,4-dihydro-2H-1-benzopyran-2-carbonyl]amino}bicyclo[2.2.2]octan-1-yl)-5-(trifluoromethoxy)pyridine-2-carboxamide]",500 to 2000 nM
17,"O=C(COc1ccc(Cl)c(F)c1)NC12CC(NC(=O)[C@@H]3C[C@@H](NCC(F)(F)F)c4cc(Cl)ccc4O3)(C1)C2 [Compound 323, (2S,4R)-6-chloro-N-{3-[2-(4-chloro-3-fluorophenoxy)acetamido]bicyclo[1.1.1]pentan-1-yl}-4-[(2,2,2-trifluoroethyl)amino]-3,4-dihydro-2H-1-benzopyran-2-carboxamide]",50 to 250 nM
18,"O=C(NC12CC(NC(=O)[C@H]3C[C@@H](O)c4cc(Cl)ccc4O3)(C1)C2)c1cnc(C2CCC2)o1 [Compound 387, N-(3-{[(2R,4R)-6-chloro-4-hydroxy-3,4-dihydro-2H-1-benzopyran-2-carbonyl]amino}bicyclo[1.1.1]pentan-1-yl)-2-cyclobutyl-1,3-oxazole-5-carboxamide]",50 to 250 nM
19,"COc1ccc2oc(C(=O)NC34CC(NC(=O)COc5ccc(Cl)c(F)c5)(C3)C4)cc(=O)c2n1 [Compound 322, N-{3-[2-(4-chloro-3-fluorophenoxy)acetamido]bicyclo[1.1.1]pentan-1-yl}-6-methoxy-4-oxo-4H-pyrano[3,2-b]pyridine-2-carboxamide]",50 to 250 nM
20,"O=C(COc1ccc(Cl)c(F)c1)NC12CC(NC(=O)[C@H]3CC(=O)c4ccccc4O3)(C1)C2 [Compound 268, (2R)—N-{3-[2-(4-chloro-3-fluorophenoxy)acetamido]bicyclo[1.1.1]pentan-1-yl}-4-oxo-3,4-dihydro-2H-1-benzopyran-2-carboxamide]",10 to 50 nM
21,"O=C(COc1ccc(Cl)c(F)c1)NC12CCC(NC(=O)[C@H]3C[C@@H](O)c4cc(Cl)ccc4O3)(C1)C2 [Compound 256, (2R,4R)-6-chloro-N-{4-[2-(4-chloro-3-fluorophenoxy)acetamido]bicyclo[2.1.1]hexan-1-yl}-4-hydroxy-3,4-dihydro-2H-1-benzopyran-2-carboxamide]",< 10 nM
22,"O=C(COc1ccc(F)c(F)c1)NC12CC(NC(=O)[C@H]3C[C@@H](O)c4cc(Cl)ccc4O3)(C1)C2 [Compound 277, (2R,4R)-6-chloro-N-{3-[2-(3,4-difluorophenoxy)acetamido]bicyclo[1.1.1]pentan-1-yl}-4-hydroxy-3,4-dihydro-2H-1-benzopyran-2-carboxamide]",< 10 nM
23,"O=C(COc1ccc(Cl)c(F)c1)NC12CC(NC(=O)[C@H]3C[C@@H](O)c4cc(F)c(F)cc4O3)(C1)C2 (racemic) [Compound 249, rac-(2R,4R)—N-{3-[2-(4-chloro-3-fluorophenoxy)acetamido]bicyclo[1.1.1]pentan-1-yl}-6,7-difluoro-4-hydroxy-3,4-dihydro-2H-1-benzopyran-2-carboxamide]",< 10 nM
24,"CO[C@@H]1C[C@H](C(=O)NC23CC(NC(=O)COc4ccc(Cl)c(F)c4)(C2)C3)Oc2ccc(Cl)cc21 (racemic) [Compound 340, rac-(2R,4R)-6-chloro-N-{3-[2-(4-chloro-3-fluorophenoxy)acetamido]bicyclo[1.1.1]pentan-1-yl}-4-methoxy-3,4-dihydro-2H-1-benzopyran-2-carboxamide]",< 10 nM
25,"C[C@@]1(C(=O)NC23CC(NC(=O)COc4ccc(Cl)c(F)c4)(C2)C3)Cc2cc(Cl)ccc2O1 [Compound 257, (2S)-5-chloro-N-{3-[2-(4-chloro-3-fluorophenoxy)acetamido]bicyclo[1.1.1]pentan-1-yl}-2-methyl-2,3-dihydro-1-benzofuran-2-carboxamide]",> 2000 nM
26,"O=C(NC12CC(NC(=O)[C@H]3C[C@@H](O)c4cc(Cl)ccc4O3)(C1)C2)c1cnn([C@H]2C[C@@H](OC(F)(F)F)C2)c1 [Compound 381, N-(3-{[(2R,4R)-6-chloro-4-hydroxy-3,4-dihydro-2H-1-benzopyran-2-carbonyl]amino}bicyclo[1.1.1]pentan-1-yl)-1-[cis-3-(trifluoromethoxy)cyclobutyl]-1H-pyrazole-4-carboxamide]",< 10 nM
27,"CC1(C(=O)NC23CC(NC(=O)COc4ccc(Cl)c(F)c4)(C2)C3)CCc2cc(Cl)ccc2O1 (stereo not drawn) [Compound 240, 6-chloro-N-{3-[2-(4-chloro-3-fluorophenoxy)acetamido]bicyclo[1.1.1]pentan-1-yl}-2-methyl-3,4-dihydro-2H-1-benzopyran-2-carboxamide]",10 to 50 nM
